Measured values taken from PMC7327383, “The affinity and selectivity of α‐adrenoceptor antagonists, antidepressants, and antipsychotics for the human α1A, α1B, and α1D‐adrenoceptors” (Pharmacology Research & Perspectives, 2020).
Read-outs that look alike come from different tables or passages of the source.

Assays:
human α1A-adrenoceptor = molecular target: T1, human α1A-adrenoceptor (Homo sapiens, UniProt P35348); assay: [3H]prazosin whole-cell competition binding, CHO-α1A cells
T1 construct: CHO cells stably expressing either the full‐length human α1A, α1B, or α1D‐adrenoceptor
T1 sequence (P35348 1-466): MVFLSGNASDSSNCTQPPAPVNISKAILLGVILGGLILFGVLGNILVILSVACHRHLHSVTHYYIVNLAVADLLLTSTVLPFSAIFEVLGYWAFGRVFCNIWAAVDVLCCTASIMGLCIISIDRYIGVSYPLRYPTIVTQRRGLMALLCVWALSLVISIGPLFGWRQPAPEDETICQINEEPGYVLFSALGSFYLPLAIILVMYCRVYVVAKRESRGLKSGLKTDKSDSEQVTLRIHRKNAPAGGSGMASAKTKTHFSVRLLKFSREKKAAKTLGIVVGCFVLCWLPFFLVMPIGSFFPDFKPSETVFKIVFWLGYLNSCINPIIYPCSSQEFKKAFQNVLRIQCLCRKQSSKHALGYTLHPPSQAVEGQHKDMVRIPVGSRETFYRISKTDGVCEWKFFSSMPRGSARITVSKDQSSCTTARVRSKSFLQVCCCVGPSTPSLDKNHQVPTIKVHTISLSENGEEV

human α1B-adrenoceptor = molecular target: T2, human α1B-adrenoceptor (Homo sapiens, UniProt P35368); assay: [3H]prazosin whole-cell competition binding, CHO-α1B cells
T2 construct: CHO cells stably expressing either the full‐length human α1A, α1B, or α1D‐adrenoceptor
T2 sequence (P35368 1-520): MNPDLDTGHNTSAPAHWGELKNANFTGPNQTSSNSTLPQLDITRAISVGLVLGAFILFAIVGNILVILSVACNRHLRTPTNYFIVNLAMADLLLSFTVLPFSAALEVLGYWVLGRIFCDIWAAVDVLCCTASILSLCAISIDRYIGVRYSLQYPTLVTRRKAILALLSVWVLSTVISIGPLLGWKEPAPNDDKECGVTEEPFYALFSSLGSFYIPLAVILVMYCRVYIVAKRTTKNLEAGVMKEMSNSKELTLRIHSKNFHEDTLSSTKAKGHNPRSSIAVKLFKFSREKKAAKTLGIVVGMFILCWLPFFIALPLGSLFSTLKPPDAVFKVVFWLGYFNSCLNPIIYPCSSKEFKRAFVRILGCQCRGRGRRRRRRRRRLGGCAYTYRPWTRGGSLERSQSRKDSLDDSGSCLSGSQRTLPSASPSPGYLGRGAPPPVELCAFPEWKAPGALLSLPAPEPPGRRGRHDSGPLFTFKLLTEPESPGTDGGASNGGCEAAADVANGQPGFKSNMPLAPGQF

[1] = molecular target: T3, full-length human α1D-adrenoceptor (Homo sapiens, UniProt P25100); assay: [3H]prazosin whole-cell competition binding, CHO-α1D cells
T3 sequence (P25100 1-572): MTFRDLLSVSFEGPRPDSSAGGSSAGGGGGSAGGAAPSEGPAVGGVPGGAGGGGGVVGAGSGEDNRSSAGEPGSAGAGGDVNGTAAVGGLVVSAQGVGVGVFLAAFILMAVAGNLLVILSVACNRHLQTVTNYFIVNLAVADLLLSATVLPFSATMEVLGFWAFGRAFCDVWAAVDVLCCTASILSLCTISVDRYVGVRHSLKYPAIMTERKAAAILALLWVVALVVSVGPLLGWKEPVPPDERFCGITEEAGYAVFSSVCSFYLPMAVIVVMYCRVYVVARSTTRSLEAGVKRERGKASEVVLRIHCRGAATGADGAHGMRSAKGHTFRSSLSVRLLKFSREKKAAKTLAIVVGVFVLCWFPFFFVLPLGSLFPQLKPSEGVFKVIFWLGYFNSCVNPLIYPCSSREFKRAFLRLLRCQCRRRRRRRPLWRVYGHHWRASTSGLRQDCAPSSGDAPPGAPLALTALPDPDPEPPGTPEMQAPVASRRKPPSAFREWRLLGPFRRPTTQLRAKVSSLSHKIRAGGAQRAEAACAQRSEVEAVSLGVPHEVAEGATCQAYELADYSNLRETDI

[2] = ratio of KD values, higher α1A affinity, 1.0 under vs = none
[3] = ratio of KD values, printed under α1A = higher α1A affinity, 1.0 under vs = none
[4] = ratio, 1 = no selectivity for a subtype over another
[5] = selectivity ratio, 1 = no selectivity for a given receptor subtype over another
[6] = single-component inhibition curve, given as log KD (negative), mean ± SE mean
[7] = ratio of KD values, higher α1D affinity (site 1 KD)
[8] = single-component inhibition curve, given as log KD (negative), mean ± SE mean, read-out: Log KD α1A (converted)
[9] = single-component inhibition curve, given as log KD (negative), mean ± SE mean, read-out: Log KD α1B (converted)
[10] = two-component inhibition curve, proportion of site 1
[11] = log KD from 3H-prazosin whole cell binding, CHO cells, mean ± s.e.mean

Molecule | Selectivity ratio α1A vs α1D (human α1A-adrenoceptor; [2]) | Selectivity ratio α1A vs α1B (human α1A-adrenoceptor; [3]) | Log KD α1A (human α1A-adrenoceptor; [6]) | selectivity α1B vs α1D (human α1B-adrenoceptor; [4]) | Selectivity ratio α1B vs α1D [1, 7] | Log KD α1D [1, 6] | Kd (human α1A-adrenoceptor; [8]) | Kd (human α1B-adrenoceptor; [9]) | Selectivity ratio α1A vs α1B (human α1A-adrenoceptor) | Selectivity ratio α1A vs α1D (human α1A-adrenoceptor) | selectivity α1B vs α1D (human α1B-adrenoceptor) | Selectivity ratio α1B vs α1D [1] | other results
CN1CCc2cccc(Cl)c2CC1 [SKF86466] | – | – | – | – | – | – | – | – | 13 fold | 7.9 fold | 1.7 | 1.7 fold | Kd (human α1A-adrenoceptor): 871 nM; selectivity α1A vs α1B (human α1A-adrenoceptor): 13.5; Kd (human α1B-adrenoceptor): 11700 nM; Kd [1]: 6920 nM
Labetolol | – | – | – | – | – | – | – | – | 26 fold | 16 fold | 1.6 | 1.6 fold | –
CN1[C@H]2C[C@H](OC(=O)[C@H](CO)c3ccccc3)C[C@@H]1[C@@H](O)C2 [Anisodamine] | – | – | −5.21 ± 0.03 | – | – | −4.21 ± 0.05 | – | – | – | – | – | – | Log KD α1B (apparent) (human α1B-adrenoceptor; app: top concentration inhibited most but not all specific binding, curve extrapolated): −3.45 ± 0.04^app
Cc1nc2n(c(=O)c1CCN1CCC(c3noc4cc(F)ccc34)CC1)CCCC2O (centres unmarked) [Paliperidone] | – | – | – | – | – | – | 4.37 nM | 43.7 nM | 10 fold | 7.8 fold | 1.3 | 1.3 fold | Log KD α1D site 2 [1]: −5.57 ± 0.21; Kd ([1]; Log KD α1D site 1, high-affinity component of two-component curve, control, used for selectivity): 33.9 nM; % site 1 α1D ([1]; percentage of inhibition through first component, control): 57.6 ± 4.9% site 1; % site 1 α1D [1, 10]: -7.47 ± 0.10 -5.57 ± 0.21 57.6 ± 4.9% site 1
COc1ccccc1N1CCN(CC2CN3C(=O)N(C)c4ccccc4C3=N2)CC1 (centres unmarked) [2-MPMDQ] | – | – | – | – | – | – | – | – | – | – | – | – | Log KD α1A (human α1A-adrenoceptor; [11]): -9.06 ± 0.07; Log KD α1B (human α1B-adrenoceptor; [11]): -7.37 ± 0.04; % site 1 α1D [1, 10]: 64.0 ± 2.1%
CC(C)NCC(O)COc1cccc2[nH]c3ccccc3c12 (centres unmarked) [Carazolol] | 34 fold | 78 fold | – | 2.3 | 2.3 fold | – | 269 nM | 20900 nM | – | – | – | – | Kd ([1]; Log KD α1D (apparent), app: top concentration inhibited most but not all specific binding, curve extrapolated): 9120 nM

More lines, main results first:

Selectivity ratio α1A vs α1D (human α1A-adrenoceptor; [2]) | Selectivity ratio α1A vs α1B (human α1A-adrenoceptor; [3]) | Log KD α1A (human α1A-adrenoceptor; [6]) | selectivity α1B vs α1D (human α1B-adrenoceptor; [4]) | Selectivity ratio α1B vs α1D [1, 7] | Log KD α1D [1, 6] | Kd (human α1A-adrenoceptor; [8]) | Kd (human α1B-adrenoceptor; [9]) | Molecule | Selectivity ratio α1A vs α1B (human α1A-adrenoceptor) | Selectivity ratio α1A vs α1D (human α1A-adrenoceptor) | selectivity α1B vs α1D (human α1B-adrenoceptor) | Selectivity ratio α1B vs α1D [1] | other results
3.1 fold | 3.1 fold | −6.57 ± 0.05 | 1.0 | 1.0 fold | −6.07 ± 0.07 | – | – | COc1cccc2c1CCC[C@H]2CN(C)CCc1ccc2ccoc2c1.CS(=O)(=O)O [A80426] | – | – | – | – | selectivity α1A vs 1D (human α1A-adrenoceptor; [4]): 3.1; selectivity α1A vs α1B (human α1A-adrenoceptor; [4]): 3.1; selectivities α1A vs α1B (human α1A-adrenoceptor; [5]): 3.1; selectivities α1A vs α1D (human α1A-adrenoceptor; [5]): 3.1; Log KD α1B (human α1B-adrenoceptor; [6]): −6.08 ± 0.02
– | >3.7 fold | – | – | – | – | – | – | COc1ccc2cccc(CCNC(C)=O)c2c1 [Agomelatine] | – | – | – | – | Kd (human α1A-adrenoceptor; app: top concentration inhibited most but not all specific binding, curve extrapolated, read-out: Log KD α1A (apparent) (converted)): 26900 nM; Log KD α1B: result in words (human α1B-adrenoceptor; no inhibition of [3H]prazosin binding at maximum concentration possible): No binding to 100 µmol/L; binding at α1B (human α1B-adrenoceptor; result in words in the Log KD α1B column): No binding to 100µM; binding at α1B (result in words) (human α1B-adrenoceptor; up to the maximum concentration): No binding to 100µM; IC50 [1]: > 31600 nM
34 fold | 68 fold | – | 2.0 | 2.0 fold | – | 77.6 nM | 5250 nM | CN(C)CC/C=C1\c2ccccc2CSc2ccccc21 [Dosulepin] | – | – | – | – | Kd ([1]; Log KD α1D, single-component inhibition curve, given as log KD (negative), mean ± SE mean): 2630 nM
32 fold | 6.8 fold | −6.48 ± 0.03 | – | – | −4.98 ± 0.06 | – | – | N=C(CC(O)COc1ccccc1-c1ccccc1)N1CCCCC1 (centres unmarked) [AH11110A] | – | – | – | – | Selectivity ratio α1B vs α1D (human α1B-adrenoceptor; ratio of KD values, higher α1B affinity, 1.0 under vs = none): 4.7 fold; Log KD α1B (human α1B-adrenoceptor; [6]): −5.65 ± 0.09
